Where two headings read alike, the source gives them in different places.
What was measured:
[1] = UV-Vis spectrum of HPTS as a function of pH, pH response range; type: physicochemical; conditions: RGB detectors with maximum sensitivity at 460 nm/520 nm/630 nm
Excerpt: An example of modification of 8-hydroxypyrene-1,3,6-trisulfonic acid as its sodium salt is shown below. The 8-hydroxypyrene-1,3,6-trisulfonic acid can also be modified as a salt of a cation other than sodium, such as potassium or ammonium. This compound is suitable as a pH sensitive probe for pH range of 7.0-8.0 for red, green and blue combination photodiode (RGB) detectors with maximum sensitivity at 460 nm/520 nm/630 nm.
The UV-Vis spectrum of HPTS as a function of pH is shown in FIG. 7, while the pH response range for this dye at 454 nm is shown in FIG. 8.

[2] = SPD derivative UV-Vis spectral and chemical properties (Table 1); type: physicochemical; conditions: for λ1, nm (SPD^−1 form): pH sensitive wavelength of SPD^−1
Excerpt: The HA and A^− concentrations are related by the Henderson-Hasselbalch equation: pH=pKa+log[A^−]/[H—A] where Ka is the acid dissociation constant, pKa is −log Ka, and [A^−] and [HA] are the concentrations of dissociated and undissociated dye acid form, respectively.
Such compounds are commonly used as pH sensitive indicators for determination of pH of aqueous solutions. […] The structure of suitable SPDs and their conjugate bases are shown generically below, and their spectral and chemical properties are reported in Table 1.
Unmodified SPDs have been used for the preparation of pH sensitive indicators adsorbed on the surface of suitable polymeric materials, such as cellulose based materials. […] In general, substitution with electron acceptor substituents (e.g., Cl, Br in the C2/C5 positions) results in a pKa shift to a lower pH range relative to PR, and substitution with electron donor substituents (e.g., C1-C3 alkyl in the C2, C4 and C5 positions) results in a pKa shift to a higher pH range. […] Examples of such SPDs include bromocresol purple and bromothymol blue.
Measurement of absorbance at specific wavelengths allows for the determination of the concentrations of the acidic and basic forms of the dye. These wavelengths are typically selected based upon the absorbance maxima for each specific dye, although other wavelengths can be employed albeit with diminished sensitivity.

[3] = SPD^−1/SPD^−2 transition, cited from earlier work
[4] = pH sensitive wavelength of SPD^−2

Row | SMILES | λ1, nm (SPD^−1 form) [2] [nm] | λ2, nm (SPD^−2 form) [2, 4] [nm] | pKa* SPD^−1/SPD^−2 [3] | other results
1 | O=S(=O)(O)c1cc(O)c2ccc3c(S(=O)(=O)O)cc(S(=O)(=O)O)c4ccc1c2c34 [8-hydroxypyrene-1,3,6-trisulfonic acid] | – | – | – | pH range for which suitable as pH sensitive probe [1]: 7.0-8.0
2 | Cc1c(C2(c3cc(C(C)C)c(O)c(Br)c3C)OS(=O)(=O)c3ccccc32)cc(C(C)C)c(O)c1Br [Bromothymol Blue] | 427 | 602 | 7.1 | –
3 | O=S1(=O)OC(c2ccc(O)c(Cl)c2)(c2ccc(O)c(Cl)c2)c2ccccc21 [Chlorophenol Red (ClPR), Chlorophenol Red] | 436 | 575 | 6.7 | –
4 | Cc1cc(O)c(C(C)C)cc1C1(c2cc(C(C)C)c(O)cc2C)OS(=O)(=O)c2ccccc21 [Thymol Blue] | 432 | 595 | 8.9 | –
5 | O=S1(=O)OC(c2cc(Br)c(O)c(Br)c2)(c2cc(Br)c(O)c(Br)c2)c2ccccc21 [Bromophenol Blue] | 436 | 591 | 4.1 | –
6 | Cc1c(C2(c3cc(C(C)C)c(O)c(CN(CC(=O)[O-])CC(=O)[O-])c3C)OS(=O)(=O)c3ccccc32)cc(C(C)C)c(O)c1CN(CC(=O)[O-])CC(=O)[O-].[Na+].[Na+].[Na+].[Na+] [Methylthymol Blue] | 442 | 614 | 6.0-13.0 | –
7 | Cc1cc(C2(c3cc(C)c(O)c(Br)c3)OS(=O)(=O)c3ccccc32)cc(Br)c1O [Bromocresol Purple (BrCrP), Bromocresol Purple] | 432 | 589 | 6.3 | –
8 | O=S1(=O)OC(c2ccc(O)cc2)(c2ccc(O)cc2)c2ccccc21 [Phenol Red (PR), Phenol Red] | 431 | 557 | 7.4 | λ2, nm (SPD^−2 form) ([2]; pH sensitive wavelength of SPD^−2, listed as PR): approximately 557 nm; pKa (Table 3, PR derivatives): 7.4; λ1, nm (Table 3, PR derivatives): 431 nm; λ2, nm (Table 3, PR derivatives): 557 nm; λ1^pH 6/pH 9 Abs ratio (calculated as OD 430 nm pH 6.0/OD 430 nm pH 9.0): 5.1; pKa* SPD^−1/SPD^−2 ([3]; listed as Phenol red (PR)): approximately 7.4
9 | Cc1cc(C2(c3ccc(O)c(C)c3)OS(=O)(=O)c3ccccc32)ccc1O [Cresol Red (CR), Cresol Red] | 430 | – | – | –
10 | Cc1cc(C2(c3cc(C)c(O)cc3C)OS(=O)(=O)c3ccccc32)c(C)cc1O [Xylenol Blue] | 436 | 594 | 8.5 | –
11 | Cc1c(C2(c3cc(Br)c(O)c(Br)c3C)OS(=O)(=O)c3ccccc32)cc(Br)c(O)c1Br [Bromocresol Green (BrCrG), Bromocresol Green] | 432 | ~614 | 4.7 | –
12 | Cc1cc(O)ccc1C1(c2ccc(O)cc2C)OS(=O)(=O)c2ccccc21 [m-Cresol Purple (mCrP), m-Cresol Purple] | 432 | 578 | 8.3 | –
13 | Cc1cc(C2(c3cc(C)c(O)c(CN(CC(=O)O)CC(=O)O)c3)OS(=O)(=O)c3ccccc32)cc(CN(CC(=O)O)CC(=O)O)c1O [Xylenol Orange] | 436 | 583 | 6.0-11.7 | –
